Test system: Human TLR7/8
Assay: Human PBMC cell-based assay, TLR7/8 stimulus (RNA-Ig), cytokine ELISA
Conditions: primary human PBMC assay, TLR7/8 potency; ligand not given; read-out: Human PBMCs IC50
Description: Human PBMC Cell-Based Assay. Human peripheral blood mononuclear cells (PBMC) were isolated from freshly-drawn heparinized (10 USP units/ml, Hospira, Lakeforest, Ill.) healthy donor whole blood by density gradient (Histopaque® 1077, Sigma, Inc., St. Louis, Mo.). Briefly, 25 ml blood was diluted with 15 ml PBS (without Ca^2+, Mg^2+) in a 50 ml conical tube, and 12 ml Histopaque was underlaid using a spinal needle. Tubes were centrifuged for 45 minutes at 1200 rpm (350×g), and PBMC were collected from the buffy coat. Cells were then washed twice in PBS, and red blood cells were lysed by suspension in 5 ml ammonium chloride solution (1× Red Blood Cell Lysis Buffer, eBioscience) for 5 minutes at room temperature. After a final wash in PBS, PBMC were resuspended at a final concentration of 2×10^6/ml in RPMI-1640 media with L-glutamine (Invitrogen) and supplemented with 25 mM HEPES (Mediatech, Inc, Manassas Va.), 10% fetal bovine serum (HyClone, Logan, Utah), and Penicillin-Streptomycin-Glutamine (Mediatech) and plated at 100 ul/well (2×10^5 cells/well) in tissue culture treated 96-well plates (Falcon).
Antagonist compounds solubilized and serial diluted in 100% DMSO were added in triplicate to cells to yield a final concentration of 0.1% DMSO (v/v). Hydroxychloroquine (Acros Organics) solubilized and serial diluted in PBS was added in triplicate to cells. PBMC were incubated with antagonist compounds or HCQ for 30 minutes at 37° C., 5% CO2 before adding various TLR agonist reagents in 100 ul complete media per well as follows (final concentrations indicated): R848 (Resiquimod; GLSynthesis, Worcester, Mass.) at 1 uM for TLR7 and TLR8, LPS (Sigma) at 10 ng/ml for TLR4, and CpG-2216 (InvivoGen) at 5 ug/ml for TLR9. To prepare a TLR7/8 agonist that mimics RNA-containing auto-antibody immune complexes in lupus patients, a 26-mer RNA with a sequence derived from human U1 snRNA stem loop IV [(sequence: […]-[…] (SEQ ID NO: 2) with phosphorothioate backbone] was synthesized (Dharmacon, Inc., Lafayette, Colo.), which has been shown previously to be a potent TLR7 and TLR8 agonist. This RNA molecule was diluted to 2.5 μM in serum-free RPMI, and mouse anti-human single stranded DNA monoclonal antibody (MAB3034, Millipore, Inc., Billerica, Mass.), which also cross-reacts with RNA, was added at a 1:25 dilution or at 1 ug/ml. The resulting “RNA-Ig” stimulus was incubated at room temperature for 15-30 minutes before adding to cells. PBMC were incubated with the various TLR agonists for 20 hours at 37° C., 5% CO2. Cell culture supernatants were collected, and levels of various human cytokines were assessed as indicated by standard ELISA procedure according to the manufacturer's recommended protocol (BD Biosciences, Inc., San Diego, Calif.). In a subsequent assay (Table 6) the ability of ER-899742 to block stimulation of normal PBMC by various TLR7/8 ligands, but not DNA-mediated activation of TLR9, was examined. In this assay cells were plated at 1×10^5 cells/well in 100 ul in 96-well plates.

SMILES	IC50 [nM]
CC1CCN(CC2CN(c3ccc(C#N)c4ncccc34)CC(C)O2)C1 (centres unmarked) [ER-886868]	50
CC1CN(c2ccc(C#N)c3ncccc23)CC(CN2C(C)CCCC2C)O1 (centres unmarked) [ER-886950]	114
CC1CN(c2ccc(C#N)c3ncccc23)CC(CN2CCCC(O)C2)O1 (centres unmarked) [ER-886951]	79
CC1CN(c2ccc(C#N)c3ncccc23)CC(CN2CCCCC2C)O1 (centres unmarked) [ER-886957]	17
CCC1CCCCN1CC1CN(c2ccc(C#N)c3ncccc23)CC(C)O1 (centres unmarked) [ER-886958]	34
CC1CCN(C[C@H]2CN(c3ccc(C#N)c4ncccc34)C[C@@H](C)O2)CC1 [ER-887141]	49
CC1CCCC(NCC2CN(c3ccc(C#N)c4ncccc34)CC(C)O2)C1 (centres unmarked) [ER-887146]	38
C[C@@H]1CN(c2ccc(C#N)c3ncccc23)C[C@H](CNc2cc(-c3ccccc3)ccn2)O1 [ER-887252]	2
CC1CN(CC2CN(c3ccc(C#N)c4ncccc34)CC(C)O2)C(C)CN1 (centres unmarked) [ER-887260]	4
CC1CN(c2ccc(C#N)c3ncccc23)CC(CN2CC(O)CC2CO)O1 (centres unmarked) [ER-887262]	103
C[C@@H]1CN(c2ccc(C#N)c3ncccc23)C[C@H](CNc2cccc(-c3ccccc3)n2)O1 [ER-887589]	36
N#Cc1ccc(N2CCOC(CNc3ccccn3)C2)c2cccnc12 (centres unmarked) [ER-887612]	53
Cc1cc(C=O)cc(-c2ccc(C#N)c3ncccc23)c1 [ER-888200]	16
C[C@@H]1CN(c2ccc(C#N)c3ncccc23)C[C@H](CN2CCCCC2)O1 [ER-888202]	8
C[C@@H]1CN(c2ccc(C#N)c3ncccc23)C[C@H](CN2CCOCC2)O1 [ER-888203]	105
C[C@@H]1CN(c2ccc(C#N)c3ncccc23)C[C@H](CN2C[C@@H](C)O[C@@H](C)C2)O1 [ER-888204]	22
CC1CN(CC2CN(c3ccc(C#N)c4ncccc34)CC(C)O2)CC(CO)O1 (centres unmarked) [ER-888205]	40
CC1CN(c2ccc(C#N)c3ncccc23)CC(CN2CCN(c3ccccn3)CC2)O1 (centres unmarked) [ER-888285]	14
CC1CN(c2ccc(C#N)c3ncccc23)CC(CN2CCN(c3ccncc3)CC2)O1 (centres unmarked) [ER-888286]	223
C[C@@H]1CN(c2ccc(C#N)c3ncccc23)C[C@H](CNc2ccc3cccnc3n2)O1 [ER-888289]	11
C[C@@H]1CN(c2ccc(C#N)c3ncccc23)C[C@H](CN2CCN(C(N)=O)CC2)O1 [ER-888330]	154
CC1CN(c2ccc(C#N)c3ncccc23)CC(CN2CCC(C3CCCCC3)CC2)O1 (centres unmarked) [ER-888479]	91

SMILES	IC50 [nM]
C[C@@H]1CN(c2ccc(C#N)c3ncccc23)C[C@H](Cn2cc(C3CCCCC3)nn2)O1 [ER-888603]	7
C[C@@H]1CN(c2ccc(C#N)c3ncccc23)C[C@H](Cn2cc(-c3ccccc3)nn2)O1 [ER-888604]	6
Cc1cc(CN2CCC(O)CC2)cc(-c2ccc(C#N)c3ncccc23)c1 [ER-888645]	47
Cc1cc(CN2CCC(N(C)C)CC2)cc(-c2ccc(C#N)c3ncccc23)c1 [ER-888646]	3
Cc1cc(CN2CCN(C)CC2)cc(-c2ccc(C#N)c3ncccc23)c1 [ER-888647]	12
CCc1cnc(NC[C@H]2CN(c3ccc(C#N)c4ncccc34)C[C@@H](C)O2)nc1 [ER-888701]	18
C[C@@H]1CN(c2ccc(C#N)c3ncccc23)C[C@H](CNc2cnccn2)O1 [ER-888896]	50
Cc1cc(NC[C@H]2CN(c3ccc(C#N)c4ncccc34)C[C@@H](C)O2)n(C)n1 [ER-888977]	217
Cc1cc(CN2CCC(N3CCCCC3)CC2)cc(-c2ccc(C#N)c3ncccc23)c1 [ER-889504]	2
CC1CN(c2ccc(C#N)c3ncccc23)CC(CN2CCC(CO)CC2)O1 (centres unmarked) [ER-889557]	85
CC1CN(c2ccc(C#N)c3ncccc23)CC(CN2CCC(N3CCCC3)C2)O1 (centres unmarked) [ER-889571]	1000
CC1CN(c2ccc(C#N)c3ncccc23)CC(CN2CCC(NC(=O)c3cccnc3)CC2)O1 (centres unmarked) [ER-889728]	21
CCCCCC(=O)NC1CCN(CC2CN(c3ccc(C#N)c4ncccc34)CC(C)O2)CC1 (centres unmarked) [ER-889744]	8
CC1CN(c2ccc(C#N)c3ncccc23)CC(CN2CCC(NC(=O)C(C)(C)C)CC2)O1 (centres unmarked) [ER-889746]	73
C[C@@H]1CCN(c2ccc(C#N)c3ncccc23)C[C@H](CN2CCC(N3CCCCC3)CC2)O1 [ER-889822]	25
CC1CN(c2ccc(C#N)c3ncccc23)CC(CN2CC(N3CCN(C)CC3)C2)O1 (centres unmarked) [ER-890108]	9
CC(=O)N1CCC(C2CCN(CC3CN(c4ccc(C#N)c5ncccc45)CC(C)O3)CC2)CC1 (centres unmarked) [ER-890113]	22
CC1CN(c2ccc(C#N)c3ncccc23)CC(CN2CC(N3CCNCC3)C2)O1 (centres unmarked) [ER-890119]	8
CC(=O)N1CCN(C2CN(CC3CN(c4ccc(C#N)c5ncccc45)CC(C)O3)C2)CC1 (centres unmarked) [ER-890120]	5
CC(=O)N[C@@H]1CCN(C[C@H]2CN(c3ccc(C#N)c4ncccc34)C[C@@H](C)O2)C1 [ER-890252]	42
CC(C)C(=O)N[C@@H]1CCN(C[C@H]2CN(c3ccc(C#N)c4ncccc34)C[C@@H](C)O2)C1 [ER-890253]	64
CC1CN(c2ccc(C#N)c3ncccc23)CC(CN2CC(N3CCOCC3)C2)O1 (centres unmarked) [ER-890342]	121

SMILES	IC50 [nM]
CC1CN(c2ccc(C#N)c3ncccc23)CC(CN2CCNCC2C)O1 (centres unmarked) [ER-890344]	2
CC1CN(c2ccc(C#N)c3ncccc23)CC(CN2CC(N3CCC(N)CC3)C2)O1 (centres unmarked) [ER-892253]	66
Cc1nn(C)cc1C(=O)NC1CCN(CC2CN(c3ccc(C#N)c4ncccc34)CC(C)O2)CC1 (centres unmarked) [ER-893926]	8
C[C@@H]1CN(c2ccc(C#N)c3ncccc23)C[C@H](CN2CCC(NS(=O)(=O)c3ccccc3)CC2)O1 [ER-894149]	31
CC1CN(c2ccc(C#N)c3ncccc23)CC(CN2CCC(NS(=O)(=O)c3ccc(F)cc3)CC2)O1 (centres unmarked) [ER-894150]	4
C[C@@H]1CN(c2ccc(C#N)c3ncccc23)C[C@H](CN2CC(NS(C)(=O)=O)C2)O1 [ER-894154]	143
C[C@@H]1CN(c2ccc(C#N)c3ncccc23)C[C@H](CN2CC(NS(=O)(=O)c3ccc(F)cc3)C2)O1 [ER-894155]	42
Cc1nn(C)cc1S(=O)(=O)NC1CN(C[C@H]2CN(c3ccc(C#N)c4ncccc34)C[C@@H](C)O2)C1 [ER-894159]	42
Cc1nn(C)cc1S(=O)(=O)NC1CCN(C[C@H]2CN(c3ccc(C#N)c4ncccc34)C[C@@H](C)O2)CC1 [ER-894160]	11
C[C@@H]1CN(c2ccc(C#N)c3ncccc23)C[C@H](CN2CCNC(=O)[C@H]2C)O1 [ER-894483]	209
C[C@@H]1CN(c2ccc(C#N)c3ncccc23)C[C@H](CN2CCNC(=O)[C@@H]2C)O1 [ER-894484]	174
CC(=O)N[C@H]1CCN(C[C@H]2CN(c3ccc(C#N)c4ncccc34)C[C@@H](C)O2)C1 [ER-894546]	69
CC(C)C(=O)N[C@H]1CCN(C[C@H]2CN(c3ccc(C#N)c4ncccc34)C[C@@H](C)O2)C1 [ER-894547]	12
C[C@@H]1CN(c2ccc(C#N)c3ncccc23)C[C@H](CN2CC[C@H](NC(=O)c3ccccc3)C2)O1 [ER-894548]	28
C[C@@H]1CN(c2ccc(C#N)c3ncccc23)C[C@H](CN2CC[C@H](N(C)C)C2)O1 [ER-894549]	14
CC1CN(c2ccc(C#N)c3ncccc23)CC(COc2cnccn2)O1 (centres unmarked) [ER-894552]	17
CC1CN(c2ccc(C#N)c3ncccc23)CC(C(C)O)O1 (centres unmarked) [ER-895200]	26
CC1CN(c2ccc(C#N)c3ncccc23)CC(C(C)O)O1 (centres unmarked) [ER-895310]	34
CC1CN(c2ccc(C#N)c3ncccc23)CC(COc2ccccn2)O1 (centres unmarked) [ER-895324]	1
CC1CN(c2ccc(C#N)c3ncccc23)CC(C(N)=O)O1 (centres unmarked) [ER-895472]	161
CC1CN(c2ccc(C#N)c3ncccc23)CC(C(=O)N2CCC(N3CCCCC3)CC2)O1 (centres unmarked) [ER-895477]	13

Source: USRE47193E1, “Selectively substituted quinoline compounds” (EISAI R&D MANAGEMENT CO., LTD., priority 2013, dated 2019)
